Drawing on patent US11919901B2 (Syndax Pharmaceuticals, Inc., priority 2021, dated 2024), this text covers IC50 for 21 compounds.

The test system of this assay is MV4-11 cells. Nature of the assay: Cell proliferation assay MV4;11 (CellTiter-Glo, 72 hours). The following applies: Homo sapiens, read-out: MV4. The format is cell-based. The gist of the method:
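Luminescent CellTiter-Glo readout after 72 h culture, 37 °C, 5% CO2, expressed relative to vehicle-treated wells, with maximal inhibition taken at the highest dose. MLL-rearranged MV4-11 leukemia cells; final compound range 0.632 to 2000 nM in eight steps.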
Background: In ATP-based viability assays light output follows the ATP content of the culture.

[1] abbreviates: MV4;11 leukemia cell line, 72 hours, 11 IC50.

Read-outs that look alike come from different tables or passages of the source.

With `CCNS(=O)(=O)N[C@@H]1CC[C@@H](CN2CCC3(CC2)CN(c2ncnnc2Oc2ccc(F)cc2C(=O)N(CC(F)F)C(C)C)C3)OC1` [Example 188, N-(2,2-Difluoroethyl)-2-((5-(7-(((2S,5R)-5-((N-ethylsulfamoyl)amino)tetrahydro-2H-pyran-2-yl)methyl)-2,7-diazaspiro[3.5]nonan-2-yl)-1,2,4-triazin-6-yl)oxy)-5-fluoro-N-isopropylbenzamide], the IC50 under setting [1] was below 100 nM. `CC(C)N(CC(F)F)C(=O)c1cc(F)ccc1Oc1nncnc1N1CC2(CCN(C[C@@H]3CC[C@@H](NS(=O)(=O)N4CCC4)CO3)CC2)C1` [Example 189, 2-((5-(7-(((2S,5R)-5-(Azetidine-1-sulfonamido)tetrahydro-2H-pyran-2-yl)methyl)-2,7-diazaspiro[3.5]nonan-2-yl)-1,2,4-triazin-6-yl)oxy)-N-(2,2-difluoroethyl)-5-fluoro-N-isopropylbenzamide]: under setting [1], the IC50 is below 100 nM.

`CCS(=O)(=O)N[C@@H]1CC[C@@H](CN2CCC3(CC2)CN(c2ncnnc2Oc2ccc(F)cc2C(=O)N(CC(F)(F)F)C(C)C)C3)OC1` [Example 190, 2-((5-(7-(((2S,5R)-5-(Ethylsulfonamido)tetrahydro-2H-pyran-2-yl)methyl)-2,7-diazaspiro[3.5]nonan-2-yl)-1,2,4-triazin-6-yl)oxy)-5-fluoro-N-isopropyl-N-(2,2,2-trifluoroethyl)benzamide]: under setting [1], the IC50 was below 100 nM. Turning to `CC(C)N(CC(F)(F)F)C(=O)c1cc(F)ccc1Oc1nncnc1N1CC2(CCN(C[C@@H]3CC[C@@H](NS(=O)(=O)C4CC4)CO3)CC2)C1` [Example 191, 2-((5-(7-(((2S,5R)-5-(Cyclopropanesulfonamido)tetrahydro-2H-pyran-2-yl)methyl)-2,7-diazaspiro[3.5]nonan-2-yl)-1,2,4-triazin-6-yl)oxy)-5-fluoro-N-isopropyl-N-(2,2,2-trifluoroethyl)benzamide], the IC50 under setting [1] is below 100 nM. Turning to `CCS(=O)(=O)N[C@@H]1CC[C@@H](CN2CCC3(CC2)CN(c2ncnnc2Oc2ccc(F)cc2C(=O)N(C(C)C)C(C)C)C3)OC1` [Example 195, 2-((5-(7-(((2S,5R)-5-(Ethylsulfonamido)tetrahydro-2H-pyran-2-yl)methyl)-2,7-diazaspiro[3.5]nonan-2-yl)-1,2,4-triazin-6-yl)oxy)-5-fluoro-N,N-diisopropylbenzamide], under setting [1], the IC50 is below 100 nM. In the case of `CC(C)N(C(=O)c1cc(F)ccc1Oc1nncnc1N1CC2(CCN(C[C@@H]3CC[C@@H](NS(=O)(=O)C4CC4)CO3)CC2)C1)C(C)C` [Example 196, 2-((5-(7-(((2S,5R)-5-(Cyclopropanesulfonamido)tetrahydro-2H-pyran-2-yl)methyl)-2,7-diazaspiro[3.5]nonan-2-yl)-1,2,4-triazin-6-yl)oxy)-5-fluoro-N,N-diisopropylbenzamide], the IC50 under setting [1] was below 100 nM. On the same count and under the same terms, under `CCNS(=O)(=O)N[C@@H]1CC[C@@H](CN2CCC3(CC2)CN(c2ncnnc2Oc2ccc(F)cc2C(=O)N(C(C)C)C(C)C)C3)OC1` [Example 198, 2-((5-(7-(((2S,5R)-5-((N-Ethylsulfamoyl)amino)tetrahydro-2H-pyran-2-yl)methyl)-2,7-diazaspiro[3.5]nonan-2-yl)-1,2,4-triazin-6-yl)oxy)-5-fluoro-N,N-diisopropylbenzamide] stands below 100 nM; under `CC(C)N(C(=O)c1cc(F)ccc1Oc1nncnc1N1CC2(CCN(C[C@@H]3CC[C@@H](NS(=O)(=O)N4CCC4)CO3)CC2)C1)C(C)C` [Example 199, 2-((5-(7-(((2S,5R)-5-(Azetidine-1-sulfonamido)tetrahydro-2H-pyran-2-yl)methyl)-2,7-diazaspiro[3.5]nonan-2-yl)-1,2,4-triazin-6-yl)oxy)-5-fluoro-N,N-diisopropylbenzamide], below 100 nM; under `C[C@@H]1COC[C@@H](C)N1C(=O)c1cc(F)ccc1Oc1cncnc1N1CC2(CCN(C[C@@H]3CC[C@@H](NS(=O)(=O)N4CCC[C@@H]4C)CO3)CC2)C1` [Example 209, (S)-N-((3R,6S)-6-((2-(5-(2-((3R,5R)-3,5-Dimethylmorpholine-4-carbonyl)-4-fluorophenoxy)pyrimidin-4-yl)-2,7-diazaspiro[3.5]nonan-7-yl)methyl)tetrahydro-2H-pyran-3-yl)-2-methylpyrrolidine-1-sulfonamide], below 100 nM. On to `CC(C)N(CC(F)F)C(=O)c1cc(F)ccc1Oc1cncnc1N1CC2(CCN(C[C@@H]3CC[C@@H](NS(=O)(=O)N(C)CCCO)CO3)CC2)C1` [Example 214, N-(2,2-difluoroethyl)-5-fluoro-2-((4-(7-(((2S,5R)-5-((N-(3-hydroxypropyl)-N-methylsulfamoyl)amino)tetrahydro-2H-pyran-2-yl)methyl)-2,7-diazaspiro[3.5]nonan-2-yl)pyrimidin-5-yl)oxy)-N-isopropylbenzamide], for which, under setting [1], the IC50 is below 100 nM. Still for that read-out and setting: under `CCN(C(=O)c1cc(F)ccc1Oc1cncnc1N1CC2(CCN(C[C@@H]3CC[C@@H](NC(=O)Nc4ccccc4)CO3)CC2)C1)C(C)C` [Example 215, N-Ethyl-5-fluoro-N-isopropyl-2-((4-(7-(((2S,5R)-5-(3-phenylureido)tetrahydro-2H-pyran-2-yl)methyl)-2,7-diazaspiro[3.5]nonan-2-yl)pyrimidin-5-yl)oxy)benzamide] stands 100 to 1000 nM; under `CCN(C(=O)c1cc(F)ccc1Oc1cnc(C)nc1N1CC2(CCN(C[C@@H]3CC[C@@H](NS(=O)(=O)CC)CO3)CC2)C1)C(C)C` [Example 216, N-Ethyl-2-((4-(7-(((2S,5R)-5-(ethylsulfonamido)tetrahydro-2H-pyran-2-yl)methyl)-2,7-diazaspiro[3.5]nonan-2-yl)-2-methylpyrimidin-5-yl)oxy)-5-fluoro-N-isopropylbenzamide], 100 to 1000 nM; under `C=CS(=O)(=O)N[C@@H]1CC[C@@H](CN2CCC3(CC2)CN(c2ncncc2Oc2ccc(F)cc2C(=O)N(CC)C(C)C)C3)OC1` [Example 219, N-Ethyl-5-fluoro-N-isopropyl-2-((4-(7-(((2S,5R)-5-(vinylsulfonamido)tetrahydro-2H-pyran-2-yl)methyl)-2,7-diazaspiro[3.5]nonan-2-yl)pyrimidin-5-yl)oxy)benzamide], below 100 nM. On the same count and under the same terms, in the case of `CCN(C(=O)c1cc(F)ccc1Oc1cncnc1N1CC2(CCN(C[C@@H]3CC[C@@H](NS(=O)(=O)CCN(C)C)CO3)CC2)C1)C(C)C` [Example 220, 2-((4-(7-(((2S,5R)-5-((2-(Dimethylamino)ethyl)sulfonamido)tetrahydro-2H-pyran-2-yl)methyl)-2,7-diazaspiro[3.5]nonan-2-yl)pyrimidin-5-yl)oxy)-N-ethyl-5-fluoro-N-isopropylbenzamide] it was 100 to 1000 nM; in that of `CC(C)N(C(=O)c1cc(F)ccc1Oc1cncnc1N1CC2(CCN(C[C@@H]3CC[C@@H](NS(=O)(=O)N4CC5(CCO5)C4)CO3)CC2)C1)C(C)C` [Example 221, 2-((4-(7-(((2S,5R)-5-(1-Oxa-6-azaspiro[3.3]heptane-6-sulfonamido)tetrahydro-2H-pyran-2-yl)methyl)-2,7-diazaspiro[3.5]nonan-2-yl)pyrimidin-5-yl)oxy)-5-fluoro-N,N-diisopropylbenzamide], below 100 nM; in that of `CC(C)N(C(=O)c1cc(F)ccc1Oc1cncnc1N1CC2(CCN(C[C@@H]3CC[C@@H](NS(=O)(=O)N4CC5(COC5)C4)CO3)CC2)C1)C(C)C` [Example 222, 2-((4-(7-(((2S,5R)-5-(2-Oxa-6-azaspiro[3.3]heptane-6-sulfonamido)tetrahydro-2H-pyran-2-yl)methyl)-2,7-diazaspiro[3.5]nonan-2-yl)pyrimidin-5-yl)oxy)-5-fluoro-N,N-diisopropylbenzamide], below 100 nM. The same measure, in the same setting: in the case of `CC(C)N(C(=O)c1cc(F)ccc1Oc1cncnc1N1CC2(CCN(C[C@@H]3CC[C@@H](NS(=O)(=O)N4CC5(CCOC5)C4)CO3)CC2)C1)C(C)C` [Example 223, 2-((4-(7-(((2S,5R)-5-(6-Oxa-2-azaspiro[3.4]octane-2-sulfonamido)tetrahydro-2H-pyran-2-yl)methyl)-2,7-diazaspiro[3.5]nonan-2-yl)pyrimidin-5-yl)oxy)-5-fluoro-N,N-diisopropylbenzamide] it was below 100 nM. Consider `CC(C)N(CC(F)F)C(=O)c1cc(F)ccc1Oc1cncnc1N1CC2(CCN(C[C@@H]3CC[C@@H](NS(=O)(=O)NCC(F)F)CO3)CC2)C1` [Example 235, N-(2,2-Difluoroethyl)-2-((4-(7-(((2S,5R)-5-((N-(2,2-difluoroethyl)sulfamoyl)amino)tetrahydro-2H-pyran-2-yl)methyl)-2,7-diazaspiro[3.5]nonan-2-yl)pyrimidin-5-yl)oxy)-5-fluoro-N-isopropylbenzamide], for which the IC50 (MV4-11, 72 h, 11 IC50 (nM)) is below 100 nM. As to `CC(C)N(CC(F)F)C(=O)c1cc(F)ccc1Oc1cncnc1N1CC2(CCN(C[C@@H]3CC[C@@H](NS(=O)(=O)N(C)CCO)CO3)CC2)C1` [Example 239, N-(2,2-difluoroethyl)-5-fluoro-2-((4-(7-(((2S,5R)-5-((N-(2-hydroxyethyl)-N-methylsulfamoyl)amino)tetrahydro-2H-pyran-2-yl)methyl)-2,7-diazaspiro[3.5]nonan-2-yl)pyrimidin-5-yl)oxy)-N-isopropylbenzamide], the IC50 under setting [1] was below 100 nM. The same measure, in the same setting: under `CC(C)N(CC(F)F)C(=O)c1cc(F)ccc1Oc1cncnc1N1CC2(CCN(C[C@@H]3CC[C@@H](NS(N)(=O)=O)CO3)CC2)C1` [Example 240, N-(2,2-Difluoroethyl)-5-fluoro-N-isopropyl-2-((4-(7-(((2S,5R)-5-(sulfamoylamino)tetrahydro-2H-pyran-2-yl)methyl)-2,7-diazaspiro[3.5]nonan-2-yl)pyrimidin-5-yl)oxy)benzamide] stands below 100 nM; under `CCS(=O)(=O)N[C@@H]1CC[C@@H](CN2CCC3(CC2)CN(c2ncncc2Oc2ccc(F)cc2C(=O)N(CCC(F)F)C(C)C)C3)OC1` [Example 242, N-(3,3-Difluoropropyl)-2-((4-(7-(((2S,5R)-5-(ethylsulfonamido)tetrahydro-2H-pyran-2-yl)methyl)-2,7-diazaspiro[3.5]nonan-2-yl)pyrimidin-5-yl)oxy)-5-fluoro-N-isopropylbenzamide], below 100 nM.
